Test results taken from patent US20230002372A1, “AZAINDOLE CARBOXAMIDE COMPOUNDS FOR THE TREATMENT OF MYCOBACTERIAL INFECTIONS” (THE GLOBAL ALLIANCE FOR TB DRUG DEVELOPMENT, INC., priority 2019, published 2023).
Values after ≈ are worked out from the molar mass of the structure shown.

Assays:
[1] = tested on: Mycobacterium abscessus; test: MIC against Mycobacterium abscessus (Mab_ATCC, MHII broth); type: cell-based; conditions: Mycobacteroides abscessus; Mycobacterium abscessus ATCC strain; Mueller-Hinton broth (MHII)
Source text: Key for Tables: MIC: Minimum Inhibitory Concentration; MABA: microplate-based Alamar Blue assay; Mab: Mycobacterium abscessus; ATCC: American Type Culture Collection; and MHII: Mueller-Hinton broth.

[2] = tested on: M tb H37Rv; test: MIC determination against M tb H37Rv (green fluorescent protein reporter assay; MIC-MABA); type: cell-based, Mycobacterium tuberculosis; conditions: Mycobacterium tuberculosis, H37RV, 240 h, read-out: M. TB H37Rv: MIC-MABA: MIC, M. tb H37Rv; 7H9 broth; 10 days exposure; MIC = lowest concentration inhibiting fluorescence by 90%

| SMILES | MIC [1] [µg/mL] | MIC [2] [µg/mL] |
| --- | --- | --- |
| Cc1cc(F)c2c(C)c(C(=O)NC3CC[Si](C)(C)CC3)[nH]c2n1 [MPL-209, N-(1,1-dimethylsilinan-4-yl)-4-fluoro-3,6-dimethyl-1H-pyrrolo[2,3-b]pyridine-2-carboxamide] | 1 (≈ 3 µM) | 0.03 (≈ 0.09 µM) |
| Cc1nc2[nH]c(C(=O)NC3CC[Si](C)(C)CC3)cc2c(F)c1F [MPL-229, N-(1,1-dimethylsilinan-4-yl)-4,5-difluoro-6-methyl-1H-pyrrolo[2,3-b]pyridine-2-carboxamide] | 0.12 (≈ 0.356 µM) | 0.0058 (≈ 0.0172 µM) |
| Cc1nc2[nH]c(C(=O)NC3CC[Si](C)(C)CC3)cc2c(Cl)c1Cl [MPL-230, 4,5-dichloro-N-(1,1-dimethylsilinan-4-yl)-6-methyl-1H-pyrrolo[2,3-b]pyridine-2-carboxamide] | 16 (≈ 43.2 µM) | 0.004 (≈ 0.0108 µM) |
| Cc1nc2[nH]c(C(=O)NC3CC[Si](C)(C)CC3)cc2c(F)c1Cl [MPL-232, 5-chloro-N-(1,1-dimethylsilinan-4-yl)-4-fluoro-6-methyl-1H-pyrrolo[2,3-b]pyridine-2-carboxamide] | 0.38 (≈ 1.07 µM) | 0.03 (≈ 0.0848 µM) |
| Cc1nc2[nH]c(C(=O)NC3CC[Si](C)(C)CC3)cc2c(C)c1Cl [MPL-239, 5-chloro-N-(1,1-dimethylsilinan-4-yl)-4,6-dimethyl-1H-pyrrolo[2,3-b]pyridine-2-carboxamide] | 16 (≈ 45.7 µM) | 0.0078 (≈ 0.0223 µM) |
| Cc1cc(Cl)c2cc(C(=O)NC3CCC[Si](C)(C)CC3)[nH]c2n1 (stereo not shown) [MPL-274, 4-chloro-N-(1,1-dimethylsilepan-4-yl)-6-methyl-1H-pyrrolo[2,3-b]pyridine-2-carboxamide] | 0.75 (≈ 2.14 µM) | 0.01 (≈ 0.0286 µM) |
| Cc1nc2[nH]c(C(=O)NC3CC[Si](C)(C)C3)cc2c(F)c1F (stereo not shown) [MPL-295, N-(1,1-dimethylsilolan-3-yl)-4,5-difluoro-6-methyl-1H-pyrrolo[2,3-b]pyridine-2-carboxamide] | 0.28 (≈ 0.866 µM) | 0.024 (≈ 0.0742 µM) |
| Cc1nc2[nH]c(C(=O)NC3CCC[Si](C)(C)CC3)cc2c(F)c1Cl (stereo not shown) [MPL-316, 5-chloro-N-(1,1-dimethylsilepan-4-yl)-4-fluoro-6-methyl-1H-pyrrolo[2,3-b]pyridine-2-carboxamide] | 0.16 (≈ 0.435 µM) | 0.015 (≈ 0.0408 µM) |
| COc1ccc2cc(C(=O)NC3CC[Si](C)(C)CC3)[nH]c2n1 [MPL-387, N-(1,1-dimethylsilinan-4-yl)-6-methoxy-1H-pyrrolo[2,3-b]pyridine-2-carboxamide] | 0.5 (≈ 1.57 µM) | 0.163 (≈ 0.513 µM) |
| Cc1cc(Cl)c2cc(C(=O)NC3CC[Si](C)(C)C3)[nH]c2n1 (stereo not shown) [MPL-401, 4-chloro-N-(1,1-dimethylsilolan-3-yl)-6-methyl-1H-pyrrolo[2,3-b]pyridine-2-carboxamide] | 0.75 (≈ 2.33 µM) | 0.016 (≈ 0.0497 µM) |
| COc1ccc2cc(C(=O)NC3CCC(C)(C)CC3)[nH]c2n1 [MPL-453, N-(4,4-dimethylcyclohexyl)-6-methoxy-1H-pyrrolo[2,3-b]pyridine-2-carboxamide] | 0.5 (≈ 1.66 µM) | 0.284 (≈ 0.942 µM) |
| C[Si]1(C)CCC(NC(=O)c2cc3ccc(OC4CC4)nc3[nH]2)CC1 [MPL-464, 6-(cyclopropoxy)-N-(1,1-dimethylsilinan-4-yl)-1H-pyrrolo[2,3-b]pyridine-2-carboxamide] | 1 (≈ 2.91 µM) | 0.124 (≈ 0.361 µM) |
| COc1cc(F)c2cc(C(=O)NC3CC[Si](C)(C)CC3)[nH]c2n1 [MPL-468, N-(1,1-dimethylsilinan-4-yl)-4-fluoro-6-methoxy-1H-pyrrolo[2,3-b]pyridine-2-carboxamide] | 0.12 (≈ 0.358 µM) | 0.023 (≈ 0.0686 µM) |
| Cc1nc2[nH]c(C(=O)NC3CC[Si](C)(C)CC3)cc2c(F)c1C [MPL-471, N-(1,1-dimethylsilinan-4-yl)-4-fluoro-5,6-dimethyl-1H-pyrrolo[2,3-b]pyridine-2-carboxamide] | 1 (≈ 3 µM) | 0.069 (≈ 0.207 µM) |
